Values joined by “and” are separate entries in the source; they are usually repeats but may differ in a detail not shown here. Equal entries are not always repeated. Active and inactive are the calls of the source.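 How the source made its calls: active means compounds giving half or more protection of infected cells from virus-caused growth loss, again on retest; inactive means the rest.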 Where a SMILES comes first, the peptide text is derived from it. Bridges are numbered along the chain shown (N, C = ends). Some results are limits rather than exact numbers.

The results in this text go back to PubChem BioAssay AID179 (DTP/NCI, 2004).

For this assay, the system named is CEM cells HIV-1 protection, formazan growth assay. Kind of assay: NCI AIDS Antiviral Assay. The following applies: for IC50: measured here: growth of uninfected CEM cells. Put shortly:
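Category rules: moderately active means at least 50% protection on retest, and confirmed active means 100% protection reproducibly. The underlying data came from a formazan growth assay in HIV-1-infected CEM cells.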

As for `COc1c(C(=O)c2cc(Cl)cc(S(=O)(=O)N(C)C=O)c2OC)cc(Cl)cc1S(=O)(=O)N(C)C=O`, the EC50 was over 46.8 µM and the IC50 is over 46.8 µM.

Consider `CCOC(=O)/C(=C/c1ccc(F)cc1)C(=O)c1ccccc1`, for which the EC50 was over 17.4 µM and the IC50 was over 17.4 µM.

As for `COc1ccc2nc3cccc([N+](=O)[O-])c3c(NCCCO)c2c1`, the EC50 was over 2 µM and the IC50 is 0.017 µM.

Regarding `CC1(C)C2CCC(O)(C2)C1N` (stereo unspecified), the EC50 is over 200 µM and the IC50 was over 200 µM.

Take `CCc1cccc(CC)c1Nc1nc2c(s1)C(=O)c1ccccc1C2=O`: the EC50 is over 200 µM and the IC50 amounted to 33.1 µM.

Consider `Nc1ccc2c3c1cccc3c(=O)n1c3ccc(Cc4ccc5c(c4)nc4c6ccc(N)c7cccc(c(=O)n54)c76)cc3nc21`, for which the EC50 is over 100 µM.

With `CCOC(=O)Cn1nc2oc(=O)c(CCN3CCN(c4ccccc4OC)CC3)c(C)c2c1C`, the EC50 was over 200 µM and the half-inhibitory concentration (IC50) is over 200 µM.

In the case of `C[C@H]1CCC/C=C/[C@@H]2C[C@H](O)C[C@H]2[C@H](O)/C=C/C(=O)O1`, the EC50 is over 891 µM and the IC50 stood at 0.282 µM.

As to `CCn1cc(C(=O)O)c(=O)c2cc(F)c(N3CCNCC3)nc21`, the result was inactive.

For `COc1ccccc1NC(=O)/C(=C\N1C(=O)CC(=O)NC1=S)C(C)=O`, the EC50 is over 200 µM and the concentration for half-maximal inhibition (IC50) is over 200 µM.

Regarding `CC(=O)Nn1cnc(C(=N)C#N)c1N`, the EC50 is over 200 µM and the IC50 is over 200 µM.

`Nc1onc2c1Cc1c(noc1N)-c1ccccc1-2`: the EC50 is over 200 µM and the IC50 is 166 µM.

As to `O=C1Cc2c([nH]c3ccccc23)-c2ccccc2N1`, the EC50 is over 105 µM and the IC50 was 69.2 µM.

In the case of `CCN(CC)c1nc(NC2CCCCC2)c2nc(N(CC)CC)nc(NC3CCCCC3)c2n1`, the EC50 was over 11.2 µM and the half-maximal inhibitory concentration (IC50) was found to be 0.537 µM.

For the compound `CC1(C)N/C(=C\C=O)C(C)(C)N1O`, the EC50 is over 200 µM and the IC50 is over 200 µM.

On to `CN1C(=O)CC(=O)N(c2ccccc2)c2cc(Cl)ccc21`, for which the result was inactive.

For `COCCCNC1=C(C#N)C(=O)NC(c2cccc([N+](=O)[O-])c2)S1` (stereo unspecified), the EC50 is over 269 µM and the IC50 turned out to be 39.8 µM.

On to `Nc1ccc(/C=C/c2ccc(N)cc2S(=O)(=O)O)c(S(=O)(=O)O)c1`, for which the outcome was inactive.

`CSc1n[nH]c2c1c(C)nn2-c1ccccc1`: the EC50 was over 200 µM and the IC50 amounted to 95.5 µM.

Turning to `CNC(=O)C(C)NC(=O)C(Cc1ccccc1)NC(=O)c1ccccc1` (stereo unspecified), the EC50 is over 200 µM and the IC50 was over 200 µM.

As to `Cc1cc(S(=O)(=O)n2ccnc2Oc2ccccc2)c(SSc2cc(Cl)c(C)cc2S(=O)(=O)n2ccnc2Oc2ccccc2)cc1Cl`, the EC50 is 129 µM and the IC50 was over 200 µM.

Turning to `COc1ccc2c(C3(O)CCNCC3)c[nH]c2c1`, the result was inactive.

In turn, `CCn1c2cc(C)c(C)cc2nc2cc3c(cc21)c(Cl)c(=O)c1ccccc13` returned an EC50 of over 200 µM and an IC50 of over 200 µM.

For the compound `[NH-]C(CCC(N)=O)C(=O)O.[NH-]C(CCCCN)C(=O)O.[Zn+2]` (stereo unspecified), the EC50 was over 200 µM and the IC50 was over 200 µM.

For `C/C(=N\NC(N)=S)c1ccc2c(c1)OCO2`, the result was inactive.

On to `CCOC(=O)NN(CCOS(=O)(=O)c1ccc(C)cc1)CCOS(=O)(=O)c1ccc(C)cc1`, for which the EC50 is over 200 µM and the IC50 amounted to 120 µM.

On to `O=C1CCC(c2ccccc2)=NN1c1nc2ccccc2s1`, for which the outcome was inactive.

Turning to `CC(=O)CCn1[nH]c(=O)c(Cl)c(Cl)c1=O`, the EC50 is over 1000 µM and the IC50 is over 1000 µM.

For the compound `Cc1nccc2c(C(=O)O)c(C(=O)O)[nH]c12`, the EC50 was over 170 µM and the IC50 was over 170 µM.

For `O=C(Cc1c(C(=O)Nc2ccccc2)sc(C(=O)Nc2ccccc2)c1CC(=O)Nc1ccccc1)Nc1ccccc1`, the outcome was inactive.

As to `COCc1c(C)oc2c(C)c3oc(=O)cc(C)c3cc12`, the EC50 was over 110 µM and the IC50 is over 110 µM.

Consider `CCC(C)C1NC(=O)C(CC(C)C)NC(=O)C(C(C)C)NC(=O)C2CSSCC(NC1=O)C(=O)N2` (stereo unspecified) (cyclo(CCVLI); disulfide 1-2; configuration not given here), for which the EC50 is over 2 µM and the IC50 is 0.339 µM.

In the case of `C/C=C/C=C\C=C/C(O)C(C)C(CCC(C)C1OC(=O)C=CC1C)OP(=O)(O)O` (stereo unspecified), the EC50 is over 2 µM and the IC50 is 0.129 µM.

As for `COC1CCCCC1C(N)C(=O)O` (stereo unspecified) (tested in a mixture with another compound), the EC50 is over 200 µM and the IC50 is over 200 µM.

With `CCOC(=O)/C(N=O)=C(/O)CC(C)C`, the EC50 is over 200 µM and the IC50 was over 200 µM.

For the compound `O=C(O)c1nc(Cl)c(Cl)[nH]c1=O`, the EC50 was over 200 µM and the IC50 was determined as 55 µM.

Regarding `O=c1/c(=C/c2ccc(Cl)cc2Cl)sc2nc3ccccc3n12`, the result was inactive.

Consider `O=C1c2c(ccc3c2CCC3)CC12Cc1cc3c(cc1C2)CCC3`, for which the EC50 is over 200 µM and the IC50 was over 200 µM.

`COc1ccc2nc3c([N+](=O)[O-])ccc4c3c(c2c1)N=CN4CCCN(C)C`: the EC50 is 0.141 µM and the IC50 was 0.468 µM.

Take `C1CCC(N([P-]P([P-]N(C2CCCCC2)C2CCCCC2)N(C2CCCCC2)C2CCCCC2)C2CCCCC2)CC1.[C-]#[O+].[C-]#[O+].[C-]#[O+].[C-]#[O+].[C-]#[O+].[C-]#[O+].[Fe].[Fe]` (stereo unspecified): the EC50 is over 0.603 µM and the IC50 is over 0.603 µM.

For the compound `COc1cc(C2[C@H]3C(=O)N(c4ccc(Cc5ccc(N6C(=O)[C@@H]7ON(c8ccccc8)C(c8cc(OC)c(OC)c(OC)c8)[C@@H]7C6=O)cc5)cc4)C(=O)[C@H]3ON2c2ccccc2)cc(OC)c1OC` (stereo partly specified), the EC50 was over 5.62 µM and the IC50 was over 5.62 µM.

As for `COc1ccc(C(=O)CC2(O)C(=O)N(CN3CCOCC3)c3ccc(Br)cc32)cc1` (stereo unspecified), the EC50 was over 123 µM and the IC50 stood at 105 µM.

In the case of `NNC(=S)N/N=C(\CC1OC(=O)c2ccccc21)c1ccccc1O` (stereo unspecified), the EC50 is over 363 µM and the IC50 was found to be 209 µM.

As for `Cc1ccccc1-n1c(=O)nc2n(-c3ccc(C(C)(C)C)cc3)c3ccccc3cc-2c1=O`, the EC50 was over 200 µM and the IC50 amounted to 14.1 µM.

Take `O=C1Cn2nc(C(=O)c3ccccc3C#Cc3ccccc3)c(-c3ccccc3)c2-c2ccccc21`: the EC50 is over 38.9 µM and the IC50 is over 38.9 µM.

For `CNCCC=C1c2ccccc2CCc2ccccc21`, the EC50 was over 200 µM; the IC50 is 28.8 µM and 33.1 µM.

As for `CC1(C)OC(=O)c2cc(C(=CCCBr)c3cc(Cl)c4c(c3)C(=O)OC(C)(C)O4)cc(Cl)c2O1`, the EC50 was over 100 µM and the IC50 was 41.7 µM.

`O[C@H]1[C@H]2c3cc4c(cc3CN3CCC(=C[C@@H]1O)[C@H]23)OCO4`: the EC50 is over 2 µM and the IC50 turned out to be 0.372 µM.

For the compound `Sc1ccccc1N=Cc1ccc(C=Nc2ccccc2S)cc1`, the EC50 was over 200 µM and the IC50 was over 200 µM.

`Cc1ccc(NC(=O)c2ccccc2)c(=O)o1`: the EC50 was over 200 µM and the IC50 was over 200 µM.

For `CCCCn1/c(=N/C(=S)N(C)C)ss/c1=N\C(=S)N(C)C`, the outcome was inactive.

As for `COc1ccc(-c2c(O)c3c(OC)cc(OC)cc3oc2=O)cc1`, the EC50 was over 200 µM and the IC50 worked out at 158 µM.

`C=C1C(OC)O[C@@H]2O[C@@]3(C)CC[C@H]4[C@H](C)CC[C@@H]1[C@@]24O3` (stereo partly specified): the EC50 was over 200 µM and the half-inhibitory concentration (IC50) was over 200 µM.

Consider `CCOP(=O)(Cc1ccc(CP(=O)(OCC)OCC)n1C)OCC`, for which the outcome was inactive.

Take `CCC/C(Cl)=N\OC(=O)Nc1ccc(F)cc1`: the EC50 is over 20 µM and the IC50 amounted to 2.82 µM.

Compound `O=C(O)c1cccc(-c2c3ccc(=O)cc-3oc3cc(O)ccc23)c1` came in with an EC50 of over 316 µM and an IC50 of 53.7 µM.

As to `CCN1C(=O)C(=O)OC1=C(c1ccccc1)c1ccccc1`, the outcome was inactive.

As to `CCCCCCCCOCCS(=O)(=O)O`, the EC50 was over 200 µM and the IC50 was over 200 µM.

With `CC1CC2NC(C)CC3NC(C)CC(N1)N32` (stereo unspecified), the EC50 is over 794 µM and the IC50 is over 794 µM.

Turning to `N#CC1(C#N)C2C=CC(c3coc4cccc2c34)C1(C#N)C#N` (stereo unspecified), the outcome was inactive.

Regarding `C[N+](C)=C1C=CC(=C2C=C(c3ccccc3)Oc3ccccc32)C=C1`, the EC50 was over 200 µM and the IC50 was 1.17 µM.

`Cc1oc2nc(N(C)C)n3nnnc3c2c1C`: the outcome was inactive.

As to `COc1c(C(=O)O)oc2c(OC)cccc12`, the result was inactive.

Turning to `COc1ccc2c(=O)c(C)c(-c3ccccc3)oc2c1CN(C)C`, the outcome was inactive.

On to `Cc1ccc(C(=O)C2=CN=C3C(=O)N(c4ccccc4)N(C)C3(C)C2=N)cc1` (stereo unspecified), for which the EC50 was over 200 µM and the IC50 was over 200 µM.

For the compound `CN(C)P1(=S)NCC(C(C)(C)C)CO1` (stereo unspecified), the EC50 was over 105 µM and the IC50 is over 105 µM.

Regarding `COc1cc2c3c(c1)nnn3C(=O)CS2`, the EC50 was over 200 µM and the IC50 is over 200 µM.

Turning to `CC1=CCC2CC1NC(=O)CCOCCC(=O)NC2(C)C` (stereo unspecified), the EC50 was over 100 µM and the IC50 is over 100 µM.

Take `O=C1C(Cl)N(c2ccc([N+](=O)[O-])cc2)C1c1c[nH]c2ccccc12` (stereo unspecified): the EC50 is over 145 µM and the IC50 amounted to 18.2 µM.

With `COc1cc2c(cc1OC)C1=Cc3cc(OC)c(OC)cc3C(C)N1C=C2` (stereo unspecified), the EC50 was over 355 µM and the IC50 was found to be 29.5 µM.

For the compound `CCC/C=[N+](\[O-])[C@@H]1CC(n2cc(C)c(=O)[nH]c2=O)OC1CO[Si](C)(C)C(C)(C)C` (stereo partly specified), the EC50 was over 200 µM and the IC50 is 107 µM.

By EC50 is commonly meant the concentration needed to bring the measured effect to its halfway point. A word on the IC50: it is the concentration at which inhibition is half-maximal. Low values mean higher potency, high ones lower potency.
